The target in data set [1] is T1, S. aureus ATCC 29213 FabI (Staphylococcus aureus, UniProt Q6GI75).
T1 sequence (Q6GI75 1-256): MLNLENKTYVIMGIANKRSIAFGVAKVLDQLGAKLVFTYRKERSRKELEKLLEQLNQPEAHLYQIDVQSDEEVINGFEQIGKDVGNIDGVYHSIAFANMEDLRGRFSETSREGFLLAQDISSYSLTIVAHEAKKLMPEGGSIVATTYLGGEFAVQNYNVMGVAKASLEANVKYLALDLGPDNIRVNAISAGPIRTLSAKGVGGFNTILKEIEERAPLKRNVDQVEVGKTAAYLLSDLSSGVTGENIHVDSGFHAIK
Kind of data set: Staphylococcus aureus FabI enzyme inhibition assay. The data set is classed as biochemical. The note with it: read-out: FabI (300.235) IC50 (converted). In outline:
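S. aureus ATCC 29213 FabI (50 μg/ml) with 250 μM crotonoyl-CoA and 625 μM NADH in 100 mM NaADA pH 6.5, inhibitor 50–0.39 μM, 30 min at room temperature. Stopped by Tris pH 9.0 shift; NADH at 340 nm versus no-compound and no-enzyme controls; IC50 in μg/ml.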

A short description of data set [2]: Cytotoxicity MTT assay (HELAM). The format is cell-based, Human. The settings on record: human, HelaM cells, read-out: HELAM (222.125) CC50. The procedure, abridged: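 HelaM cells exposed 72 h at 37° C to serial dilutions, typically 25 to 0.8 μM, in 0.5% DMSO. MTT formazan dissolved in 2-propanol, absorbance at 540 nm minus 690 nm; CC50 is concentration halving viability.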
On the technique in general: Tetrazolium dyes change colour on reduction, which living cells bring about.

Data set [3] concerns S. aureus strain ATCC 29213. Kind of data set: In vivo efficacy, peritonitis model of S. aureus infection. The note with it: female Swiss albino mice, IP infection, inoculum 8.9 log10, PO, QD, Sol 20% CD + 1HCl, 3 days post-infection. An excerpt:
The concept of studying the in vivo effect of an antibacterial compound by treating intraperitoneally infected mice was introduced in 1911 for optochin against pneumococci (Morgenroth and Levy, 1911). The popularity of the model comes from the ease of its use with short-duration experiments, reproducible infections and simple end-points.
Methicillin-sensitive S. aureus strain ATCC 29213 was used to infect female Swiss albino mice. A Brain Heart Infusion (BHI) broth bacterial culture was inoculated the day before infection, incubated at 37° C. overnight and diluted in fresh BHI broth to the desired concentration. Intraperitoneal (i.p.) injection of ˜5×10^9 colony forming units (CFU) was performed in either of the lateral lower quadrants of the abdomen. After inoculation, mice were kept in their cages under daily observation for development of signs of infection or death. For the treatment of mice, the p.o. route was used and each mouse was treated individually by gavage. Example of Cpd No. 48 was formulated as a 20% HP-β-cyclodextrin and example of Cpd No. 38 was formulated as a water/Tween-20 suspension. The parameter used for monitoring the course of infection and the effect of treatment was death or survival of the animals over 3 days post-infection. As death could also be due to toxic side effects, a non-infected control group of 3 mice, treated with the highest dose of the compound tested, was included.

A short description of data set [4]: In vivo pharmacokinetic and oral bioavailability in mouse. Details: species or system male Swiss mice. How it is done:
The in vivo pharmacokinetics and oral bioavailability of the compound of the examples were/are investigated in male Swiss mice (fed) following single intravenous (i.v.) bolus and oral (p.o.) administration. For the i.v. and p.o. solution formulations, the compound was/is dissolved in a 20% HP-β-CD solution. The pH of the formulations was/is around pH 4. All i.v. formulations were isotonic.

[5] abbreviates: male, Swiss, plasma, iv, 2.5 mg/kg, 20% HP-β-cyclodextrin.
Setting [6] is: male, Swiss, plasma, po, 10 mg/kg, 20% HP-β-cyclodextrin.

Data on one compound can be found in patent US9315522B2, “Antibacterial compounds” (JANSSEN SCIENCES IRELAND UC, priority 2012, dated 2016).

Some results are limits rather than exact numbers.

Usually IC50 stands for the midpoint of a concentration-inhibition curve. Usually CC50 stands for the concentration at which the toxic effect on the cells reaches its halfway point. The AUC(0-inf) is the area under the concentration-time curve extrapolated to infinity. Lower therefore signals low exposure. A word on the Cmax: it is the maximum level reached in the sampled fluid or tissue. The Tmax is the time at which the peak concentration occurs. By bioavailability is commonly meant dose-corrected exposure relative to a reference, in per cent. The low end stands for poor availability, the high end for good availability. Take `O=C1CNCc2cc(/C=C/C(=O)N3CC4C=C(c5nccs5)CC4C3)cnc2N1` (stereo not shown) [compound 48]: the 50% inhibitory concentration (IC50) in data set [1] was about 663 nM. The 50% cytotoxic concentration (CC50) at 72 h in data set [2] was over 10.2 µg/mL. The “% Survival” value in data set [3] (1 mpk) is on record as 57%. For the same compound, the “% Survival” value in data set [3] (5 mpk) is recorded as 100%. For the same compound, the Vdz in data set [4] (i.v., 2.5 mg/kg, 20% HP-β-cyclodextrin) amounted to 2.8 L/kg. In data set [4] (setting [5]), the AUC(0-inf) came out at 1600 ng·h/mL and the C0 was 4560 ng/mL. The half-life in data set [4] (male, Swiss, plasma, iv, 2.5 mg/kg, 20% HP-β-cyclodextrin, read-out: Half life (t1/2) (converted)) is 1.2 h. The clearance in data set [4] (male, Swiss, plasma, iv, 2.5 mg/kg, 20% HP-β-cyclodextrin, read-out: Plasma clearance Cl (converted)) was 26.7 mL/min/kg. Also, in data set [4] (setting [6]), the AUC(0-inf) came out at 2050 ng·h/mL, the maximum concentration (Cmax) turned out to be 483 ng/mL and the time to peak (Tmax) was found to be 1.3 h. Further, in data set [4] (male, Swiss, plasma, po, p.o. 10 mg/kg vs i.v. 2.5 mg/kg), the bioavailability was 32%.
